Experimental data as given in patent publication US20250027085A1, “COMPOSITIONS AND METHODS FOR TREATING ALZHEIMER'S DISEASE UTILIZING A TRANSCRIPTIONAL MASTER REGULATOR OF THE RETROMER COMPLEX” (THE TRUSTEES OF COLUMBIA UNIVERSITY IN THE CITY OF NEW YORK, priority 2022, published 2025).

Tests used:
CHOP = CHOP quantitative immunofluorescence in soma after axonal Aβ1-42/Aβ42; assay type: cell-based, rat; conditions: axonal treatment; Aβ oligomers 36 hours, nelfinavir in the last 24 hours
Protocol: Hippocampi were dissected from embryonic day (E) 16-18 rat embryos obtained from pregnant Sprague-Dawley dams (Envigo). All animal procedures were approved by the Institutional Animal Care and Use Committee at Columbia University. Cell dissociation was performed using TripLE Express. Neurons (50,000-60,000 per microfluidic chamber) were plated on 0.1 mg ml^-1 poly-D-lysine (Millipore Sigma) and 2 μg ml^-1 laminin (Bio-Techne) coated substrates and grown in Neurobasal supplemented with 10% fetal bovine serum, 2 mM L-glutamine, 1 mM sodium pyruvate, and antibiotics (50 U ml^-1 penicillin-streptomycin). Tripartite microfluidic chambers were produced with Dow Corning Sylgard 184 Silicone Encapsulant Clear Kit (10:1 mix ratio; Ellsworth Adhesives) cured at […] for at least 4 hours following published protocols (Park et al. 2006; Desai et al. 2009). Chamber design incorporated two sets of 200-μm-long microgroove barriers to exclude crossing of cell bodies and dendrites (Taylor et al. 2005; […] et al. 2009). After 24 hours, medium was changed to Neurobasal containing 1×B27 and 2 mM L-glutamine. Subsequent medium changes (half volumes) were performed at DIV4 and thereafter every 3-5 days. […] Mean pixel intensity values were computed after background fluorescence subtraction.

[1] = system: CREB3L2-ATF4 heterodimers; experiment: Proximity ligation assay (PLA) of axonal CREB3L2-ATF4 heterodimers; assay type: cell-based, rat; conditions: axons treated with Aβ oligomers for 36 hours plus nelfinavir
Protocol: Hippocampi were dissected from embryonic day (E) 16-18 rat embryos obtained from pregnant Sprague-Dawley dams (Envigo). All animal procedures were approved by the Institutional Animal Care and Use Committee at Columbia University. Cell dissociation was performed using TripLE Express. Neurons (50,000-60,000 per microfluidic chamber) were plated on 0.1 mg ml^-1 poly-D-lysine (Millipore Sigma) and 2 μg ml^-1 laminin (Bio-Techne) coated substrates and grown in Neurobasal supplemented with 10% fetal bovine serum, 2 mM L-glutamine, 1 mM sodium pyruvate, and antibiotics (50 U ml^-1 penicillin-streptomycin). Tripartite microfluidic chambers were produced with Dow Corning Sylgard 184 Silicone Encapsulant Clear Kit (10:1 mix ratio; Ellsworth Adhesives) cured at […] for at least 4 hours following published protocols (Park et al. 2006; Desai et al. 2009). Chamber design incorporated two sets of 200-μm-long microgroove barriers to exclude crossing of cell bodies and dendrites (Taylor et al. 2005; […] et al. 2009). After 24 hours, medium was changed to Neurobasal containing 1×B27 and 2 mM L-glutamine. Subsequent medium changes (half volumes) were performed at DIV4 and thereafter every 3-5 days. To prevent glial cell proliferation, medium changes included 5-flurodeoxyuridine and uridine (final concentration […]; Millipore Sigma) after DIV4. […]

Cc1c(O)cccc1C(=O)N[C@@H](CSc1ccccc1)[C@H](O)CN1C[C@H]2CCCC[C@H]2C[C@H]1C(=O)NC(C)(C)C [nelfinavir]
downstream induction of CHOP expression in the soma (CHOP): abolished | CREB3L2-ATF4 complexes/heterodimers in axons (PLA) [1]: caused the accumulation
